# Patent US20080096831A1, “Stabilized azithromycin composition” (priority 2003, published 2008)
# Test: Impurity analysis of azithromycin monohydrate granules by HPLC after storage at 50° C. for 8 days
# Type: physicochemical
# Settings: results of Table 1
# Method: Wet granules prepared according to the procedure set forth in Example 1 were placed on a tray which was placed in an oven at 55° C. Six samples were taken at different times and the moisture content was determined using an OHAUS Balance. The water/moisture content of each sample varied from 3.3-12.5 wt %, based on the total weight of the granules. The samples were stored in glass bottles, sealed, and placed in an oven at 50° C. After 8 days, the samples were removed from the oven and the amount and type of impurities was determined by high performance liquid chromatography (HPLC).
# Sample solutions were freshly prepared from azithromycin monohydrate and injected on column. The percentages of impurities was calculated from the integrator output. The performance of the HPLC system was tested using standardized solutions of azithromycin monohydrate.
# Three impurities were identified and measured as a percentage of the total azithromycin monohydrate in each sample.
compound,measurement,value
"CC[C@H]1OC(=O)[C@H](C)[C@@H](O[C@H]2C[C@@](C)(OC)[C@@H](O)[C@H](C)O2)[C@H](C)[C@@H](O[C@@H]2O[C@H](C)C[C@H](N(C)C)[C@H]2O)[C@](C)(O)C[C@@H](C)CN(C)[C@H](C)[C@@H](O)[C@]1(C)O (relative stereo) [azithromycin monohydrate, [2R-(2R*,3S*,4R*,5R*,8R*, 10R*, 11R*, 12S*, 13S*, 14R*)]-13-[(2,6-dideoxy-3-C-methyl-3-β-methyl-α-L-ribo-hexopyranosyl)oxy]-2-ethyl-3,4,10-trihydroxy-3,5,6,8,10,12,14-heptamethyl-11-[[3,4,6-trideoxy-3-(dimethylamino)-β-D-xylo-hexopyranosyl]oxy]-1-oxa-6-azacyclopentadecan-15-one monohydrate]",water content range in which chemical stability is good,5.5-12.4 wt %
